Test system: Ba/F3 cells expressing EGFR Exon20 ins NPH
Experiment: Ba/F3 proliferation suppression activity, cells expressing EGFR Exon20 ins NPH
Assay type: cell-based
Settings: Mus musculus, BaF3, 72 hours, CellTiter-Glo
Protocol: A following experiment was carried out to evaluate the suppression activity of the compounds according to the present invention against the proliferation of Ba/F3 which expresses EGFR mutations.
For the Ba/F3 cells, a RPMI-1640 medium containing 10% FBS and 5 ng/ml IL-3 (R&D Systems) was used. The transduced Ba/F3 cells were cultured in a medium, which is same as the above medium, but 1 ug/ml puromycin (Invitrogen) was additionally added to.
24 hours before the treatment of the cells with the compounds, 3000 to 5000 cells were distributed into each well of a white clear bottom 96 well plate (Corning). The compounds were diluted in a dimethyl sulfoxide (e.g. dilution ratio of 3:1 and total 12 concentrations) and then injected by 0.5 ul respectively, such that a final concentration amounted to 0.3 nM to 50 uM. 72 hours after the treatment with the compounds, the measurement of live cells was made in such way that these cells were stored for 10 minutes at a room temperature using a CellTiter-Glo luminescent cell-viability reagent (Promega) and then their luminescence intensities were measured using a reader (i.e. Synergy Neo, Biotek). Each test was repeated three times.
resulting values were calculated as a cell growth ratio (%) compared to a control. Then, the graphs were drawn and the […] values were calculated by using a program, GraphPad Prism version 5.0.

GI50 [nM] | Compound
50 to 500 | C=CC(=O)Nc1cc(Nc2cc(N3OCC[C@@H]3c3cc(F)cc(C(F)(F)F)c3)ncn2)c(OC)cc1N1CCN(C2CC2)CC1 [Compound 2]
50 to 500 | C=CC(=O)Nc1cc(Nc2cc(N3OCC[C@@H]3c3cc(F)cc(C(F)(F)F)c3)ncn2)c(OC)cc1N1CCN(C)CC1 [Compound 3]
< 50 | C=CC(=O)Nc1cc(Nc2cc(N3OCC[C@@H]3c3cc(F)cc(C(F)(F)F)c3)ncn2)c(OC)cc1N1CCN(CC)CC1 [Compound 4]
50 to 500 | C=CC(=O)Nc1cc(Nc2cc(N3OCC[C@@H]3c3cc(F)cc(C(F)(F)F)c3)ncn2)c(OC)cc1N1CCN(C2CC2)[C@H](C)C1 [Compound 5]
50 to 500 | C=CC(=O)Nc1cc(Nc2cc(N3OCC[C@@H]3c3cc(F)cc(C(F)(F)F)c3)ncn2)c(OC)cc1N1CCN(C2CC2)[C@@H](C)C1 [Compound 6]
< 50 | C=CC(=O)Nc1cc(Nc2cc(N3OCC[C@@H]3c3cccc(C(F)(F)F)c3)ncn2)c(OC)cc1N1CCN(C)[C@@H](C)C1 [Compound 7]
< 50 | C=CC(=O)Nc1cc(Nc2cc(N3OCC[C@@H]3c3cccc(C(F)(F)F)c3)ncn2)c(OC)cc1N1CCN(C)[C@H](C)C1 [Compound 8]
50 to 500 | C=CC(=O)Nc1cc(Nc2cc(N3OCC[C@@H]3c3cccc(C(F)(F)F)c3)ncn2)c(OC)cc1N1CCN(C2CC2)[C@H](C)C1 [Compound 9]
50 to 500 | C=CC(=O)Nc1cc(Nc2cc(N3OCC[C@@H]3c3cccc(C(F)(F)F)c3)ncn2)c(OC)cc1N1CCN(C2CC2)[C@@H](C)C1 [Compound 10]
50 to 500 | C=CC(=O)Nc1cc(Nc2cc(N3OCC[C@@H]3c3cc(F)cc(C(F)(F)F)c3)ncn2)c(OC)cc1N1CCN(C)[C@H](C)C1 [Compound 11]
50 to 500 | C=CC(=O)Nc1cc(Nc2cc(N3OCC[C@@H]3c3cc(F)cc(C(F)(F)F)c3)ncn2)c(OC)cc1N1CCN(C)[C@@H](C)C1 [Compound 12]
50 to 500 | C=CC(=O)Nc1cc(Nc2cc(N3OCC[C@@H]3c3cccc(C(F)(F)F)c3)ncn2)c(OC)cc1N1CCC(N2CCC(N3CCN(C4CC4)CC3)CC2)CC1 [Compound 13]
50 to 500 | C=CC(=O)Nc1cc(Nc2cc(N3OCC[C@@H]3c3cccc(C(F)(F)F)c3)ncn2)c(OC)cc1N1CCC(N2CCC(N3CCN(C)CC3)CC2)CC1 [Compound 14]
50 to 500 | C=CC(=O)Nc1cc(Nc2cc(N3OCC[C@@H]3c3cc(F)cc(C(F)(F)F)c3)ncn2)c(OC)cc1N1CCC(N(C)C)CC1 [Compound 15]
< 50 | C=CC(=O)Nc1cc(Nc2cc(N3OCC[C@@H]3c3cc(F)cc(C(F)(F)F)c3)ncn2)c(OC)cc1N1CCC(N(CC)CC)CC1 [Compound 16]
< 50 | C=CC(=O)Nc1cc(Nc2cc(N3OCC[C@@H]3c3cc(F)cc(C(F)(F)F)c3)ncn2)c(OC)cc1N(C)CCN(C)C [Compound 17]
< 50 | C=CC(=O)Nc1cc(Nc2cc(N3OCC[C@@H]3c3cc(F)cc(C(F)(F)F)c3)ncn2)c(OC)cc1N1CCC(N2CCCC2)CC1 [Compound 18]
< 50 | C=CC(=O)Nc1cc(Nc2cc(N3OCC[C@@H]3c3cc(F)cc(C(F)(F)F)c3)ncn2)c(OC)cc1N1CCC(N2CCC2)CC1 [Compound 19]
< 50 | C=CC(=O)Nc1cc(Nc2cc(N3OCC[C@@H]3c3cccc(C(F)(F)F)c3)ncn2)c(OC)cc1N1CCC(N(CC)CC)CC1 [Compound 20]
< 50 | C=CC(=O)Nc1cc(Nc2cc(N3OCC[C@@H]3c3cccc(C(F)(F)F)c3)ncn2)c(OC)cc1N1CCC(N2CCC2)CC1 [Compound 21]
< 50 | C=CC(=O)Nc1cc(Nc2cc(N3OCC[C@@H]3c3cccc(C(F)(F)F)c3)ncn2)c(OC)cc1N1CCC(N2CCCC2)CC1 [Compound 22]
< 50 | C=CC(=O)Nc1cc(Nc2cc(N3OCC[C@@H]3c3cccc(C(F)(F)F)c3)ncn2)c(OC)cc1N1CCN(C2COC2)CC1 [Compound 23]

GI50 [nM] | Compound
< 50 | C=CCN1CCN(c2cc(OC)c(Nc3cc(N4OCC[C@@H]4c4cccc(C(F)(F)F)c4)ncn3)cc2NC(=O)C=C)CC1 [Compound 24]
< 50 | C=CC(=O)Nc1cc(Nc2cc(N3OCC[C@@H]3c3cccc(C(F)(F)F)c3)ncn2)c(OC)cc1N1CCN(CC2CC2)CC1 [Compound 25]
< 50 | C=CC(=O)Nc1cc(Nc2cc(N3OCC[C@@H]3c3cccc(C(F)(F)F)c3)ncn2)c(OC)cc1N1CCCN(C)CC1 [Compound 26]
< 50 | C=CC(=O)Nc1cc(Nc2cc(N3OCC[C@@H]3c3cccc(C(F)(F)F)c3)ncn2)c(OC)cc1N1CCOCC1 [Compound 27]
50 to 500 | C=CC(=O)Nc1cc(Nc2cc(N3OCC[C@@H]3c3cccc(C(F)(F)F)c3)ncn2)c(OC)cc1N1C[C@H]2C[C@@H]1CO2 [Compound 28]
50 to 500 | C=CC(=O)Nc1cc(Nc2cc(N3OCC[C@@H]3c3cccc(C(F)(F)F)c3)ncn2)c(OC)cc1N1CCCN(C2CC2)CC1 [Compound 29]
50 to 500 | C=CC(=O)Nc1cc(Nc2cc(N3OCC[C@@H]3c3cccc(C(F)(F)F)c3)ncn2)c(OC)cc1N1C[C@@H]2C[C@H]1CO2 [Compound 30]
50 to 500 | C=CC(=O)Nc1cc(Nc2cc(N3OCC[C@@H]3c3cccc(C(F)(F)F)c3)ncn2)ccc1N1CCN(C)CC1 [Compound 31]
50 to 500 | C=CC(=O)Nc1cc(Nc2cc(N3OCC[C@@H]3c3ccc(Cl)c(C(F)(F)F)c3)ncn2)c(OC)cc1N1CCN(C)CC1 [Compound 32]
50 to 500 | C=CC(=O)Nc1cc(Nc2cc(N3OCC[C@@H]3c3ccc(Cl)c(C(F)(F)F)c3)ncn2)c(OC)cc1N1CCN(CC)CC1 [Compound 33]
50 to 500 | C=CC(=O)Nc1cc(Nc2cc(N3OCC[C@@H]3c3ccc(Cl)c(C(F)(F)F)c3)ncn2)c(OC)cc1N1CCC(N2CCN(C3CC3)CC2)CC1 [Compound 34]
50 to 500 | C=CC(=O)Nc1cc(Nc2cc(N3OCC[C@@H]3c3ccc(Cl)c(C(F)(F)F)c3)ncn2)c(OC)cc1N1CCC(N(C)C)CC1 [Compound 35]
< 50 | C=CC(=O)Nc1cc(Nc2cc(N3OCC[C@@H]3c3ccc(F)c(C(F)(F)F)c3)ncn2)c(OC)cc1N(C)CCN(C)C [Compound 36]
< 50 | C=CC(=O)Nc1cc(Nc2cc(N3OCC[C@@H]3c3ccc(F)c(C(F)(F)F)c3)ncn2)c(OC)cc1N1CCN(CC)CC1 [Compound 38]
< 50 | C=CC(=O)Nc1cc(Nc2cc(N3OCC[C@@H]3c3ccc(F)c(C(F)(F)F)c3)ncn2)c(OC)cc1N1CCC(N(C)C)CC1 [Compound 39]
< 50 | C=CC(=O)Nc1cc(Nc2cc(N3OCC[C@@H]3c3ccc(F)c(C(F)(F)F)c3)ncn2)c(OC)cc1N1CCCN(C)CC1 [Compound 40]
< 50 | C=CC(=O)Nc1cc(Nc2cc(N3OCC[C@@H]3c3ccc(F)c(C(F)(F)F)c3)ncn2)c(OC)cc1N1CCN(CC2CC2)CC1 [Compound 42]
< 50 | C=CC(=O)Nc1cc(Nc2cc(N3OCC[C@@H]3c3ccc(F)c(C(F)(F)F)c3)ncn2)c(OC)cc1N1CC[C@@H](N(C)C)C1 [Compound 43]
< 50 | C=CC(=O)Nc1cc(Nc2cc(N3OCC[C@@H]3c3ccc(F)c(C(F)(F)F)c3)ncn2)c(OC)cc1N1CCN(C)[C@@H](C)C1 [Compound 44]
50 to 500 | C=CC(=O)Nc1cc(Nc2cc(N3OCC[C@@H]3c3ccc(F)c(C(F)(F)F)c3)ncn2)c(OC)cc1N1C[C@H]2C[C@@H]1CO2 [Compound 45]
< 50 | C=CC(=O)Nc1cc(Nc2cc(N3OCC[C@@H]3c3ccc(F)c(C(F)(F)F)c3)ncn2)c(OC)cc1N1CCN(C(C)=O)CC1 [Compound 46]

Source: patent publication US20230322753A1, “HETEROARYL DERIVATIVE, METHOD FOR PREPARATION THEREOF, AND PHARMACEUTICAL COMPOSITION COMPRISING SAME AS ACTIVE INGREDIENT” (VORONOI INC., priority 2020, published 2023)
